Measurements taken from patent publication US10004225B2, “Wearable insect repelling patch” (S. C. Johnson & Son, Inc., priority 2005, dated 2018).

Tested on: mosquitoes
Test: Three-chamber test apparatus, mosquito personal area repellency of hung patches with human test subject as attractant
Type: in vivo
Details: Example 1, 2 patches 103 cm^2, 60 mg each; for % Repellency: no adhesive
Protocol: Various patch sizes and insect repellents were tested, initially using the test apparatus shown schematically generally at 20 in FIG. 3. The test apparatus 20 has a sample chamber 22, connected to a mosquito chamber 24, which is connected via an opening 34 to a remote chamber 26. Each chamber is generally cubical, with a volume of about 0.43 m^3.
The sample chamber 22 has an open end 28 on the side remote from the mosquito chamber 24. A screen 30 divides the sample chamber 22 from the mosquito chamber 24. The opening 34 between the mosquito chamber 24 and the remote chamber 26 is slightly constricted by side walls 32. However, the opening 34 is still sufficiently large that mosquitoes can freely move between the mosquito and remote chambers 24 and 26.
Four, screened, low-flow exhaust ports 36 are located in the side walls 32, the exhaust ports facing the open end 28. Air is drawn through the exhaust ports 36 and exhausted from the mosquito chamber 24 at a rate sufficient to draw air in through the open end 28 but insufficient to affect the flying of mosquitoes placed in the mosquito chamber 24 or to disturb the air in the remote chamber 26.
For each test, a human test subject 38 is placed at the open end 28 of the sample chamber 22, the test subject's breath providing the warmth, CO2, and moisture known to be human attractants for mosquitoes. The exhaust ports 36 pull air, along with those attractants, though the open end 28 and on through the sample chamber 22, the screen 30, and the mosquito chamber 24. The attractants thus leave the apparatus 20 without entering the remote chamber 26.
Mosquitoes are placed in the mosquito chamber 24 and are quickly attracted to the screen 30 by the human attractants. The open end 28 is large enough to expose primarily the upper torso and head of the test subject. Two patches 10 are hung one foot into the sample chamber 22 and approximately 20 cm down from the chamber's top (except as was done otherwise in particular experiments, as is noted, below).
Percent repellency was calculated as the percent of mosquitoes that had been initially introduced into the mosquito chamber 24 (most of which were attracted to the screen 30 before the patches 10 were put in place), that then were repelled from the screen when the patches were introduced. The “repellency” indicated in the table, below, for time zero reflects the mosquitoes that were not yet attracted to the screen 30 by the time the test patches 10 were introduced. […] The patches 10 used were 103 cm^2 in size, with no adhesive layer 18.
The patch material was a non-woven cloth material comprised of rayon, polyester, and polypropylene (as described in published U.S. Patent Application US20040082248), dosed with 60 mg of the active ingredient. The controls used no patches.
The same test apparatus 20 was used in the same way as described in Example 1, with the following changes. When a test included four patches 10, two were hung as in Example 1, and two were hung about 13 cm from the bottom of the chamber to simulate patches worn on the shoulders and at the waist of a user. In one test, as indicated in the table, below, the patches 10 were attached to the test subject's chest. Each individual patch was treated with the amount of insect repellent indicated. Time is shown in minutes.

In the case of `CC=C[C@@H]1[C@@H](C(=O)OCc2c(F)c(F)c(COC)c(F)c2F)C1(C)C` (racemic) [metofluthrin, 2,3,5,6-tetrafluoro-4-methoxymethylbenzyl (EZ)-(1RS,3RS)-2,2-dimethyl-3-(prop-1-enyl)-cyclopropanecarboxylate], the “personal area repellency (result in words)” value is reported as “successful personal area repellency”, the “% Repellency” value (5 min) is reported as 72% and the “% Repellency” value (10 min) is reported as 92%. The “% Repellency” value (15 min) was 96%, the “% Repellency” value (20 min) was 98% and the “% Repellency” value (time 0 min (mosquitoes not yet attracted to screen)) was 10%.
